Source: ChEMBL document CHEMBL4715697, “Synthesis and biological activity of benzamide DNA minor groove binders” (2016)

Legend:
NCI/ADR-RES = test: Growth inhibition of human NCI/ADR-RES cells assessed as cell growth at 10 uM incubated for 48 hrs by sulforhodamine B assay relative to control; format: functional; details: read-out: Activity
[1] = test system: Poly(dA-dT)oligonucleotide; test: Binding affinity to minor groove of poly(dA:dT) dsDNA (unknown origin) assessed as change in melting temperature by UV-vis spectrophotometry based DNA melting assay; format: nucleic-acid assay
Hs-578T = test: Growth inhibition of human Hs-578T cells assessed as cell growth at 10 uM incubated for 48 hrs by sulforhodamine B assay relative to control; format: functional; details: read-out: Activity
SF-539 = test: Growth inhibition of human SF-539 cells assessed as cell growth at 10 uM incubated for 48 hrs by sulforhodamine B assay relative to control; format: functional; details: read-out: Activity
BT-549 = test: Growth inhibition of human BT-549 cells assessed as cell growth at 10 uM incubated for 48 hrs by sulforhodamine B assay relative to control; format: functional; details: read-out: Activity
T47D = test: Growth inhibition of human T47D cells assessed as cell growth at 10 uM incubated for 48 hrs by sulforhodamine B assay relative to control; format: functional; details: read-out: Activity
TK-10 = test: Growth inhibition of human TK-10 cells assessed as cell growth at 10 uM incubated for 48 hrs by sulforhodamine B assay relative to control; format: functional; details: read-out: Activity
NCI-H460 = test: Growth inhibition of human NCI-H460 cells assessed as cell growth at 10 uM incubated for 48 hrs by sulforhodamine B assay relative to control; format: functional; details: read-out: Activity
NCI-H522 = test: Growth inhibition of human NCI-H522 cells assessed as cell growth at 10 uM incubated for 48 hrs by sulforhodamine B assay relative to control; format: functional; details: read-out: Activity
[2] = test system: Poly(dA-dT)oligonucleotide; test: Displacement of ethidium bromide from minor groove of poly(dA:dT) dsDNA (unknown origin) by fluorescence spectrophotometry; format: nucleic-acid assay
SNB-75 = test: Growth inhibition of human SNB-75 cells assessed as cell growth at 10 uM incubated for 48 hrs by sulforhodamine B assay relative to control; format: functional; details: read-out: Activity
A549 = test: Growth inhibition of human A549/ATCC cells assessed as cell growth at 10 uM incubated for 48 hrs by sulforhodamine B assay relative to control; format: functional; details: read-out: Activity
HCC 2998 = test: Growth inhibition of human HCC 2998 cells assessed as cell growth at 10 uM incubated for 48 hrs by sulforhodamine B assay relative to control; format: functional; details: read-out: Activity
MCF7 = test: Growth inhibition of human MCF7 cells assessed as cell growth at 10 uM incubated for 48 hrs by sulforhodamine B assay relative to control; format: functional; details: read-out: Activity
SF-295 = test: Growth inhibition of human SF-295 cells assessed as cell growth at 10 uM incubated for 48 hrs by sulforhodamine B assay relative to control; format: functional; details: read-out: Activity
CAKI-1 = test: Growth inhibition of human CAKI-1 cells assessed as cell growth at 10 uM incubated for 48 hrs by sulforhodamine B assay relative to control; format: functional; details: read-out: Activity
NCI-H322M = test: Growth inhibition of human NCI-H322M cells assessed as cell growth at 10 uM incubated for 48 hrs by sulforhodamine B assay relative to control; format: functional; details: read-out: Activity
SN12C = test: Growth inhibition of human SN12C cells assessed as cell growth at 10 uM incubated for 48 hrs by sulforhodamine B assay relative to control; format: functional; details: read-out: Activity
HL-60(TB) = test: Growth inhibition of human HL-60(TB) cells assessed as cell growth at 10 uM incubated for 48 hrs by sulforhodamine B assay relative to control; format: functional; details: read-out: Activity
OVCAR-4 = test: Growth inhibition of human OVCAR-4 cells assessed as cell growth at 10 uM incubated for 48 hrs by sulforhodamine B assay relative to control; format: functional; details: read-out: Activity

Row | SMILES | growth at 10 µM (NCI/ADR-RES) | ΔTm [1] | growth at 10 µM (Hs-578T) | growth at 10 µM (SF-539) | growth at 10 µM (BT-549) | growth at 10 µM (T47D) | growth at 10 µM (TK-10) | growth at 10 µM (NCI-H460) | growth at 10 µM (NCI-H522) | C50 [2] | growth at 10 µM (SNB-75) | growth at 10 µM (A549) | growth at 10 µM (HCC 2998) | growth at 10 µM (MCF7) | growth at 10 µM (SF-295) | growth at 10 µM (CAKI-1) | growth at 10 µM (NCI-H322M) | growth at 10 µM (SN12C) | growth at 10 µM (HL-60(TB)) | growth at 10 µM (OVCAR-4)
1 | CCN(CC)CC(=O)Nc1cccc(C(=O)Nc2cc(CO)cc(NC(C)=O)c2)c1 | 107% | 8.7 °C | 130% | 98.7% | 105% | 92.9% | 96.6% | 104% | 93.8% | > 1 mM | 91% | 103% | 95.8% | 88.9% | 87% | 112% | 117% | 112% | 105% | 
2 | CC(=O)Nc1cc(CO)cc(NC(=O)c2ccc(C(=O)Nc3cc(CO)cc(NC(C)=O)c3)cc2)c1 | 110% |  | 101% | 99.6% | 99.5% | 92% | 103% | 107% | 94.1% |  | 102% | 108% | 99.6% | 97.4% | 96.8% | 117% | 103% | 97.4% | 107% | 
3 | CCN(CC)CC(=O)Nc1ccc(C(=O)Nc2cc(CO)cc(NC(C)=O)c2)cc1 | 110% | 10.2 °C |  | 99.7% | 112% | 99.1% | 99.2% | 109% | 105% |  | 110% | 95.7% | 98.6% | 100% | 136% | 106% | 105% | 103% | 107% | 
4 | CC(=O)Nc1cccc(NC(=O)c2ccc(C(=O)Nc3cc(CCl)cc(NC(C)=O)c3)cc2)c1 | 109% |  | 114% | 109% | 108% | 95.8% | 113% | 112% | 90.8% |  | 113% | 118% | 103% | 102% |  | 115% | 125% | 102% | 93.4% | 119%
5 | CC(=O)Nc1ccc(C(=O)Nc2cc(CO)cc(NC(C)=O)c2)cc1 | 110% |  | 121% | 107% | 108% | 94.7% | 101% | 109% | 89.5% |  | 96.7% | 108% | 99.4% | 95.3% |  |  | 109% | 104% | 101% | 
6 | CC(=O)Nc1cc(CO)cc(NC(=O)c2ccc(C(=O)NCCCN(C)C)cc2)c1 | 112% |  | 114% | 110% | 98.6% | 92.9% | 99% | 112% | 88.4% | > 1 mM | 87.8% | 107% | 102% | 101% |  | 109% | 121% | 95.6% | 104% | 103%
7 | CC(=O)Nc1cc(CO)cc(NC(=O)c2cccc(NC(=O)CCCN3CCOCC3)c2)c1 | 107% |  | 114% | 98.9% | 91.7% | 96% | 94% | 108% | 93.1% |  | 102% | 101% | 101% | 105% | 120% | 116% | 105% | 101% | 110% | 
8 | CC(=O)Nc1cc(CO)cc(NC(=O)c2ccc(C(=O)NCCCN3CCOCC3)cc2)c1 | 113% |  |  | 97.3% | 94.2% | 108% | 91.9% | 111% | 91.1% |  | 90.2% | 107% | 100% | 102% |  | 109% | 105% | 104% | 107% | 67.9%
9 | CC(=O)Nc1cc(CO)cc(NC(=O)c2ccc(NC(=O)CCCN3CCOCC3)cc2)c1 | 106% |  | 114% | 97.6% | 99.8% | 98.7% | 93.1% | 110% | 93.4% |  | 92.5% | 104% | 102% | 102% | 150% | 110% | 107% | 97% | 106% | 
10 | CC(=O)Nc1cccc(NC(=O)c2ccc(C(=O)Nc3cc(CO)cc(NC(C)=O)c3)cc2)c1 | 113% |  |  | 106% | 116% | 86.2% | 98.8% | 112% | 89.1% |  | 94.9% | 108% | 102% | 93.3% |  | 111% | 115% | 106% | 96.9% | 68.7%
